# Test results reported in PubChem BioAssay (NCI).
# “And” between values parts separate entries of the source, which are not always exact repeats. Equal values may be shown once.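 Each compound was tested at five concentrations against cells in 96-well plates for 48 hours. Here, GI50 denotes the concentration required for 50% inhibition of growth. TGI is the concentration that stops growth completely.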
# Tested on: BT-549 breast
# Assay: DTP human tumour cell line panel, 48 h
Compound,GI50,TGI
CCn1cc(C(=O)N/N=C/c2ccccc2)c(=O)c2cc(F)c(N3CCNC(C)C3)c(F)c21 (configuration not stated),1.6 µM,3 µM
c1ccc(CN2CCC3(CC2)SSC2(CCN(Cc4ccccc4)CC2)S3)cc1,,> 100 µM
CCOC(=O)c1c2c(n(Cc3ccc(Cl)cc3Cl)c1C)-c1nc[nH]c1C(=O)C2=O,15.5 µM,31.8 µM
COc1cccc2c1C(=O)c1c(O)c3c(c(O)c1C2=O)CC(O)(C(O)CO)CC3OC1CC(N2CCOCC2)C(O)C(C)O1 (configuration not stated),,0.206 µM
Cc1cc(C(=C2C=CC(=Nc3ccccc3)C=C2)c2ccc(Nc3ccccc3)cc2)ccc1N,1.06 µM,2.26 µM
C#CC1(O)C(COP(=O)(O)OC(COCCCCCCCCCCCCCCCCCC)COP(=O)(O)OCC2OC(n3cc(F)c(=O)[nH]c3=O)CC2O)OC(n2ccc(N)nc2=O)C1O (configuration not stated),,> 42.8 µM and 8.71 µM
O=C1c2cccc(NCCN=Cc3cc([N+](=O)[O-])ccc3O)c2C(=O)c2c(NCCN=Cc3cc([N+](=O)[O-])ccc3O)cccc21,36.9 µM,> 100 µM
Cc1ccc(-c2nc(C#N)c(S(=O)(=O)n3nc(C)cc3N)o2)cc1,3.85 µM,14.8 µM

# Tested on: COLO 205 colon
# Assay: DTP human tumour cell line panel, 48 h
Compound,TGI,GI50
c1ccc(CN2CCC3(CC2)SSC2(CCN(Cc4ccccc4)CC2)S3)cc1,33.3 µM,
CCOC(=O)c1c2c(n(Cc3ccc(Cl)cc3Cl)c1C)-c1nc[nH]c1C(=O)C2=O,32.1 µM,17.4 µM
COc1cccc2c1C(=O)c1c(O)c3c(c(O)c1C2=O)CC(O)(C(O)CO)CC3OC1CC(N2CCOCC2)C(O)C(C)O1 (configuration not stated),,0.0278 µM
Cc1cc(C(=C2C=CC(=Nc3ccccc3)C=C2)c2ccc(Nc3ccccc3)cc2)ccc1N,0.407 µM,0.201 µM
C#CC1(O)C(COP(=O)(O)OC(COCCCCCCCCCCCCCCCCCC)COP(=O)(O)OCC2OC(n3cc(F)c(=O)[nH]c3=O)CC2O)OC(n2ccc(N)nc2=O)C1O (configuration not stated),1.99 µM and 6.07 µM,
O=C1c2cccc(NCCN=Cc3cc([N+](=O)[O-])ccc3O)c2C(=O)c2c(NCCN=Cc3cc([N+](=O)[O-])ccc3O)cccc21,20.2 µM,1.78 µM
CCN(CC)CCOc1ccc(CCc2cc(OC)c(OC)c(OC)c2)cc1,31 µM,
O=c1[nH]nc2ccccc2c1Cc1ccccc1,> 100 µM,
O=C(CC(=O)C1=CNc2ccccc2S1)C(=O)Nc1ccc(Cl)cc1,> 50 µM,
Cc1oc2c(C)c3oc(=O)cc(C)c3cc2c1CN1C(=O)C2OCCOCCOCCOCCOCCO[C@H]2C1=O (some centres not stated),> 100 µM,
Cc1ccc(-c2nc(C#N)c(S(=O)(=O)n3nc(C)cc3N)o2)cc1,4.19 µM,2.15 µM
O=C(Nc1ccncc1)C(=O)c1cn(Cc2ccc(Cl)cc2)c2ccccc12,> 22.3 µM,0.232 µM

# Tested on: HOP-62 NSCLC
# Assay: DTP human tumour cell line panel, 48 h
Compound,TGI,GI50
c1ccc(CN2CCC3(CC2)SSC2(CCN(Cc4ccccc4)CC2)S3)cc1,> 100 µM,
CCOC(=O)c1c2c(n(Cc3ccc(Cl)cc3Cl)c1C)-c1nc[nH]c1C(=O)C2=O,32.6 µM,16.4 µM
COc1cccc2c1C(=O)c1c(O)c3c(c(O)c1C2=O)CC(O)(C(O)CO)CC3OC1CC(N2CCOCC2)C(O)C(C)O1 (configuration not stated),0.0566 µM and 0.081 µM,0.0262 µM
C#CC1(O)C(COP(=O)(O)OC(COCCCCCCCCCCCCCCCCCC)COP(=O)(O)OCC2OC(n3cc(F)c(=O)[nH]c3=O)CC2O)OC(n2ccc(N)nc2=O)C1O (configuration not stated),> 86.5 µM and 33.9 µM,
O=C1c2cccc(NCCN=Cc3cc([N+](=O)[O-])ccc3O)c2C(=O)c2c(NCCN=Cc3cc([N+](=O)[O-])ccc3O)cccc21,59.8 µM,3.37 µM
CCN(CC)CCOc1ccc(CCc2cc(OC)c(OC)c(OC)c2)cc1,81.4 µM,
O=c1[nH]nc2ccccc2c1Cc1ccccc1,> 100 µM,
O=C(CC(=O)C1=CNc2ccccc2S1)C(=O)Nc1ccc(Cl)cc1,> 50 µM,
Cc1oc2c(C)c3oc(=O)cc(C)c3cc2c1CN1C(=O)C2OCCOCCOCCOCCOCCO[C@H]2C1=O (some centres not stated),> 100 µM,
Cc1ccc(-c2nc(C#N)c(S(=O)(=O)n3nc(C)cc3N)o2)cc1,35.1 µM,17.7 µM
O=C(Nc1ccncc1)C(=O)c1cn(Cc2ccc(Cl)cc2)c2ccccc12,> 100 µM,0.0597 µM

# Tested on: IGROV1 ovarian
# Assay: DTP human tumour cell line panel, 48 h
Compound,GI50,TGI
CCn1cc(C(=O)N/N=C/c2ccccc2)c(=O)c2cc(F)c(N3CCNC(C)C3)c(F)c21 (configuration not stated),1.71 µM,3.2 µM
c1ccc(CN2CCC3(CC2)SSC2(CCN(Cc4ccccc4)CC2)S3)cc1,,> 100 µM
CCOC(=O)c1c2c(n(Cc3ccc(Cl)cc3Cl)c1C)-c1nc[nH]c1C(=O)C2=O,11.2 µM,24 µM
COc1cccc2c1C(=O)c1c(O)c3c(c(O)c1C2=O)CC(O)(C(O)CO)CC3OC1CC(N2CCOCC2)C(O)C(C)O1 (configuration not stated),0.0288 µM,
Cc1cc(C(=C2C=CC(=Nc3ccccc3)C=C2)c2ccc(Nc3ccccc3)cc2)ccc1N,0.389 µM,1.34 µM
C#CC1(O)C(COP(=O)(O)OC(COCCCCCCCCCCCCCCCCCC)COP(=O)(O)OCC2OC(n3cc(F)c(=O)[nH]c3=O)CC2O)OC(n2ccc(N)nc2=O)C1O (configuration not stated),0.135 µM,2.59 µM and 4.59 µM
O=C1c2cccc(NCCN=Cc3cc([N+](=O)[O-])ccc3O)c2C(=O)c2c(NCCN=Cc3cc([N+](=O)[O-])ccc3O)cccc21,2.62 µM,> 100 µM
CCN(CC)CCOc1ccc(CCc2cc(OC)c(OC)c(OC)c2)cc1,,> 100 µM
O=c1[nH]nc2ccccc2c1Cc1ccccc1,,> 100 µM
O=C(CC(=O)C1=CNc2ccccc2S1)C(=O)Nc1ccc(Cl)cc1,,> 50 µM
Cc1oc2c(C)c3oc(=O)cc(C)c3cc2c1CN1C(=O)C2OCCOCCOCCOCCOCCO[C@H]2C1=O (some centres not stated),,> 100 µM
Cc1ccc(-c2nc(C#N)c(S(=O)(=O)n3nc(C)cc3N)o2)cc1,2.99 µM,8.28 µM
O=C(Nc1ccncc1)C(=O)c1cn(Cc2ccc(Cl)cc2)c2ccccc12,0.141 µM,> 100 µM

# Tested on: M14 melanoma
# Assay: DTP human tumour cell line panel, 48 h
Compound,GI50,TGI
CCn1cc(C(=O)N/N=C/c2ccccc2)c(=O)c2cc(F)c(N3CCNC(C)C3)c(F)c21 (configuration not stated),1.78 µM,3.26 µM
c1ccc(CN2CCC3(CC2)SSC2(CCN(Cc4ccccc4)CC2)S3)cc1,,> 100 µM
CCOC(=O)c1c2c(n(Cc3ccc(Cl)cc3Cl)c1C)-c1nc[nH]c1C(=O)C2=O,14.7 µM,27.8 µM
COc1cccc2c1C(=O)c1c(O)c3c(c(O)c1C2=O)CC(O)(C(O)CO)CC3OC1CC(N2CCOCC2)C(O)C(C)O1 (configuration not stated),0.0158 µM,0.0288 µM and 0.0381 µM
Cc1cc(C(=C2C=CC(=Nc3ccccc3)C=C2)c2ccc(Nc3ccccc3)cc2)ccc1N,0.286 µM,1.04 µM
C#CC1(O)C(COP(=O)(O)OC(COCCCCCCCCCCCCCCCCCC)COP(=O)(O)OCC2OC(n3cc(F)c(=O)[nH]c3=O)CC2O)OC(n2ccc(N)nc2=O)C1O (configuration not stated),1.53 µM and 0.218 µM,24.3 µM and 2.74 µM
O=C1c2cccc(NCCN=Cc3cc([N+](=O)[O-])ccc3O)c2C(=O)c2c(NCCN=Cc3cc([N+](=O)[O-])ccc3O)cccc21,26.8 µM,> 100 µM
CCN(CC)CCOc1ccc(CCc2cc(OC)c(OC)c(OC)c2)cc1,,34.3 µM
O=c1[nH]nc2ccccc2c1Cc1ccccc1,,> 100 µM
O=C(CC(=O)C1=CNc2ccccc2S1)C(=O)Nc1ccc(Cl)cc1,,> 50 µM
